Assay results from PMC5086919, “Antileukemic Scalarane Sesterterpenoids and Meroditerpenoid from Carteriospongia (Phyllospongia) sp., Induce Apoptosis via Dual Inhibitory Effects on Topoisomerase II and Hsp90” (Scientific Reports, 2016).
≈ marks a conversion by molar mass, not a printed value. Where “and” joins values, the source holds several entries; their conditions need not be identical. Equal entries are not always repeated.

Legend:
Molt 4 cells = experiment: ROS generation, carboxy-H2DCFDA flow cytometry; format: cell-based, human; conditions: 0.0625 μg/mL
Method: Oxidative stress is manifested by ROS overexpression and cannot be balanced by the available antioxidant machinery. Compound 1 can damage the integrity of mitochondria, which are the major production sites of the superoxide anion, […]. The induction of the intracellular formation of ROS by 1 was determined with a carboxyl derivative of fluorescein, carboxy-H2DCFDA dye using flow cytometric analysis. […] In addition, ROS generation could induce ER stress leading to mitochondria-related apoptosis. To further investigate if ER stress is involved in the apoptotic effect induced by 1, Western blot analysis was used to determine the expression of ER stress-related proteins. […] Furthermore, the effect of 1 on the release of intracellular Ca^2+, was evaluated using fluorescent calcium indicator, Fluo 3. […] The induction of the typical executor caspases-3 and −7, as well as γH2AX, was also observed using Western blot analysis (Fig. 7D). To confirm the induction of DNA damage by 1 in Molt 4 cells, a comet assay under neutral electrophoresis condition was utilized. The effect of 1 (0.0625 μg/mL) at different time intervals (0, 3, 6 and 9 h) on the level of nuclear DNA integrity was determined. […] The DNA migration was represented by the induction of DSBs in a time-dependent increase, as indicated by the abnormal tails’ sizes in the comet assay.
These assays were performed as described previously. […] In brief, the treated cells were labeled with a specific fluorescent dye for 30 min. After labeling, cells were washed with PBS and resuspended in PBS at a concentration of 1 × 10^6 cells/mL before analysis via flow cytometry.

[1] = test system: PARP and caspases in Molt 4 cells; experiment: Western blot of apoptosis-related proteins; format: cell-based, human; conditions: 0.0625 μg/mL, time-dependent
Method: Oxidative stress is manifested by ROS overexpression and cannot be balanced by the available antioxidant machinery. Compound 1 can damage the integrity of mitochondria, which are the major production sites of the superoxide anion, […]. The induction of the intracellular formation of ROS by 1 was determined with a carboxyl derivative of fluorescein, carboxy-H2DCFDA dye using flow cytometric analysis. […] In addition, ROS generation could induce ER stress leading to mitochondria-related apoptosis. To further investigate if ER stress is involved in the apoptotic effect induced by 1, Western blot analysis was used to determine the expression of ER stress-related proteins. […] Furthermore, the effect of 1 on the release of intracellular Ca^2+, was evaluated using fluorescent calcium indicator, Fluo 3. […] The effect of 1 (0.0625 μg/mL) at different time intervals (0, 3, 6 and 9 h) on the level of nuclear DNA integrity was determined. […]
Cell lysates were prepared by treating the cells for 30 min in RIPA lysis buffer, 1% Nonidet P-40, 0.5% sodium deoxycholate, 0.1% sodium dodecyl sulphate (SDS), 1 mM sodium orthovanadate, 100 μg/mL phenylmethylsulfonyl fluoride and 30 μg/mL aprotinin) (all chemicals were from Sigma)[38]. The lysates were centrifuged at 20,000 × g for 30 min, and the protein concentration in the supernatant was determined using a BCA protein assay kit (Pierce). […]

[2] = test system: all leukemia and one lymphoma cell lines; experiment: MTT assay, summary statement for leukemia and lymphoma lines; conditions: read-out: IC50 against all leukemia and one lymphoma cell lines
From the text: Several cancer cell lines including leukemia K562, Molt 4, and HL 60 cells, prostate cancer LNCaP cells, colon cancer DLD-1 cells and breast cancer T-47D cells were used to evaluate the antiproliferative activity.
The cell lines were obtained from the American Type Culture Collection (ATCC, Manassas, VA, USA). […] Dimethyl sulfoxide (DMSO), 3-(4,5-dimethylthiazol-2-yl)-2,5-diphenyl-tetrazolium bromide (MTT) and all other chemicals were purchased from Sigma-Aldrich (St. Louis, MO, USA).

γH2AX in Molt 4 cells = experiment: Western blot of γH2AX (DNA damage biomarker); format: cell-based, human; conditions: 0, 0.0625, 0.125 and 0.25 μg/mL, 24 h
From the text: (§1) The ability of Topo II to generate DNA damage in the presence of Topo II-targeting agents led to the hypothesis that an important determinant of drug sensitivity was related to the overall level of Topo II[17]. […] Such findings encouraged us to evaluate the effect of the isolates on Topo II activity. In order to confirm whether the DNA damage-induced by the isolated sesterterpenoids involved the inhibition of Topo II activity, a cell-free DNA cleavage assay using an enzyme-mediated negatively supercoiled pHOT1 plasmid DNA was applied. […] These marine terpenoids suppressed Topo II activity, resulting in the inhibition of supercoiled DNA relaxation in a dose-dependent manner (Fig. 5A). […] To determine whether the apoptotic mechanism of these compounds affects γH2AX (as a biomarker of DNA damage) induction, Western blot analysis was employed to examine the activation of γH2AX.
(§2) Cell lysates were prepared by treating the cells for 30 min in RIPA lysis buffer, 1% Nonidet P-40, 0.5% sodium deoxycholate, 0.1% sodium dodecyl sulphate (SDS), 1 mM sodium orthovanadate, 100 μg/mL phenylmethylsulfonyl fluoride and 30 μg/mL aprotinin) (all chemicals were from Sigma)[38]. The lysates were centrifuged at 20,000 × g for 30 min, and the protein concentration in the supernatant was determined using a BCA protein assay kit (Pierce). Equal amounts of proteins were respectively separated by 7.5%, 10% or 12% of SDS-polyacrylamide gel electrophoresis and then were electrotransferred to a PVDF membrane. The membrane was blocked with a solution containing 5% non-fat dry milk TBST buffer (20 mM Tris-HCl, pH 7.4, 150 mM NaCl and 0.1% Tween 20) for 1 h and washed with TBST buffer. The protein expressions were monitored by immunoblotting using specific antibodies. These proteins were detected by an enhanced chemiluminescence kit (Pierce).

Sup-T1 cells = experiment: MTT antiproliferative assay, lymphoma Sup-T1 cells; conditions: Homo sapiens, SUP-T1, 72 h, read-out: IC50, cytotoxicity, Lymphoma Sup-T1
[3] = test system: Hsp90 client proteins in Molt 4 cells; experiment: Western blot of Hsp90, Hsp70, HSF 1 and Hsp90 client proteins; format: cell-based, human; conditions: 0.0625 μg/mL, different time intervals
Method: (§3) It was also reported that the induction of Hsp70 is the biomarker of Hsp90 with N-terminal inhibition. Aiming to understand the relation between Hsp90 function and the expression of Hsp70 and 90 clients, we treated Molt 4 cells with 1 (0.0625 μg/mL) for different time intervals. […] The majority of Hsps accumulate in subcellular localizations that determine whether a cell is going to die or differentiate. Erythroblasts with accumulated nuclear Hsp70 continued their differentiation process during the formation of red blood cells. Furthermore, we identified the localization of Hsp70 in response to 1 treatment using immunofluorescence by confocal microscope.
as §2

human topoisomerase II = molecular target: T1, human topoisomerase II (Homo sapiens, UniProt P11388); experiment: Cell-free topoisomerase II DNA relaxation/cleavage assay with supercoiled pHOT1 plasmid DNA; format: biochemical; conditions: compared with control supercoiled DNA
T1 construct: purchased Topogen
From the text: as §1
The assay was performed as described previously. […] Reactions were terminated by adding 2 μL of 10% SDS to facilitate trapping the enzyme in a cleavage complex, followed by the addition of 2.5 μL of proteinase K (50 μg/mL) to digest the bound protein (incubated at 37 °C for 15 min) and finally by adding 0.1 volume of the sample loading dye. The DNA products were analyzed via electrophoresis through vertical 2% agarose gels at 2 voltage/cm in 0.5 × TAE buffer. Gels were stained with ethidium bromide and photographed using an Eagle Eye II system (Stratagene, La Jolla, CA, USA). The quantitative analysis of the DNA Topo II activity was performed as described previously.

Hsp70 in Molt 4 cells = experiment: Immunofluorescence localization of Hsp70, confocal microscope; format: cell-based, human
Method: as §3
After treatment with the tested compound, cells were fixed with 4% paraformaldehyde in 50 mM HEPES buffer (pH 7.3) for 30 min, and permeabilized for 20 min with 0.2% Trition X-100 in PBS (pH 7.4). To prevent non-specific protein binding, cells were incubated with 5% BSA in PBS containing 0.05% Trition X-100 (T-PBS) for 1 h at room temperature. Cells were then incubated with the primary Hsp70 antibodies (1: 500) for 2 h and further with secondary antibodies (Alexa Fluor […] goat anti-mouse IgG (H + L) (Life Technologies, Carlsbad, CA, USA) diluted at 1:1000 for 1 h at room temperature. After washing with PBS, cells were observed under a FV1000 confocal laser scanning microscope (Olympus, Tokyo, Japan).

T1 sequence (P11388 whole entry): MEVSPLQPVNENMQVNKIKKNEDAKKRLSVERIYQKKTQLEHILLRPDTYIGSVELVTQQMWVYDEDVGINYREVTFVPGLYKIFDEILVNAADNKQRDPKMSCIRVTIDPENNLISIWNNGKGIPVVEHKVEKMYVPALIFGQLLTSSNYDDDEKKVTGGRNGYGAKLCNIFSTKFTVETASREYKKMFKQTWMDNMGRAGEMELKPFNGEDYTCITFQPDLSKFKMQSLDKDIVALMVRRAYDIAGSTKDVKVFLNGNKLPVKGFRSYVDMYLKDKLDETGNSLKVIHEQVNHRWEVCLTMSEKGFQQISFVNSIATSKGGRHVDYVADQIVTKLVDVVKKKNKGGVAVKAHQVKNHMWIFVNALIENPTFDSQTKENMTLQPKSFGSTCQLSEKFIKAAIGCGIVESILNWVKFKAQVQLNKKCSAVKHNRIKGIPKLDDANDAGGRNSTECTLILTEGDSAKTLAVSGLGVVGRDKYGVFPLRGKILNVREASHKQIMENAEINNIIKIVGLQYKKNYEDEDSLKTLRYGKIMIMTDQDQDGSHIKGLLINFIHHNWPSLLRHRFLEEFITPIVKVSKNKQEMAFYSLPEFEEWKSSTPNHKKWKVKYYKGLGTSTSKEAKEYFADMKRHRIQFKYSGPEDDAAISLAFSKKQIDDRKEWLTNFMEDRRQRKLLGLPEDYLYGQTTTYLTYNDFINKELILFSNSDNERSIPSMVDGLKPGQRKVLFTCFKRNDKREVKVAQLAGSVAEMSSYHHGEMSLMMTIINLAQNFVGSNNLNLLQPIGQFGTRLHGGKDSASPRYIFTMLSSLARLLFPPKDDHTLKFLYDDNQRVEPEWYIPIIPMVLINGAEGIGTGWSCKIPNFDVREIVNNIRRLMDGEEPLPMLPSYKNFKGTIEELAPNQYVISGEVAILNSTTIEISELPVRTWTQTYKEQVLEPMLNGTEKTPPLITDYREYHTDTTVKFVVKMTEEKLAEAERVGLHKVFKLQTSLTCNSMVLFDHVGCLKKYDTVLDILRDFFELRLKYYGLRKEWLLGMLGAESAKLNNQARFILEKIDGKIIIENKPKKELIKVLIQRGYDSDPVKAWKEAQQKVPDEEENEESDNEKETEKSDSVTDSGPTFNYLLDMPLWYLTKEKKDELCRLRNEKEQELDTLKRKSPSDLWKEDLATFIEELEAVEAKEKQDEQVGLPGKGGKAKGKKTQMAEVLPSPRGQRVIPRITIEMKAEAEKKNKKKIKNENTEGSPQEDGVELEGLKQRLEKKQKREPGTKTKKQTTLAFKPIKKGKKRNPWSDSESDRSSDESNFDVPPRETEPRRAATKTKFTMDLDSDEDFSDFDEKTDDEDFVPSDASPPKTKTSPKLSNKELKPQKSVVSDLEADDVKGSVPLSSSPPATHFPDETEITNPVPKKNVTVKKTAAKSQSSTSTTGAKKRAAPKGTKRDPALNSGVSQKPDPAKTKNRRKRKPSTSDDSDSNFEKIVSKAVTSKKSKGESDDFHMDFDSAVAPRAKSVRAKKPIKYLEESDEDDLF

CC[C@@]1(C)CCC[C@]2(C)[C@H]3C[C@@H](OC(=O)C[C@@H](C)O)[C@]4(C)[C@@H](C=O)C(C(C)=O)=CC[C@H]4[C@]3(C)CC[C@@H]12 (relative stereo) [Compound 1, 12β-(3′β-hydroxybutanoyloxy)-20,24-dimethyl-24-oxo-scalara-16-en-25-al]
increase in ROS levels compared with MFI of control (Molt 4 cells; 0.5 h): 2.09 fold
increase in ROS levels compared with MFI of control (Molt 4 cells; 1 h): 1.51 fold
increase in ROS levels compared with MFI of control (Molt 4 cells; 2 h): 1.06 fold
increase in ROS levels compared with MFI of control (Molt 4 cells; 3 h): 1.01 fold
PARP and caspase cleavages [1]: significant increase of PARP, caspases-8 and −9 cleavages
IC50 [2]: 0.01 µg/mL and 2.08 nM
expression of γH2AX (γH2AX in Molt 4 cells): significantly enhanced the expression of γH2AX in a dose-dependent manner
IC50 (Sup-T1 cells): 0.13 µg/mL (≈ 0.26 µM)
expression of HSF 1 protein [3]: attenuated
expression of Hsp70 [3]: increased in a time-dependent manner
expression of Hsp90 client proteins (p70S6k, NFκB, Raf-1, p-GSK3β, MEK 1, XIAP, MDM 2, Rb2, CDK4, HIF 1, HSF1) [3]: suppression of Hsp90 client proteins was observed
expression of Hsp90 protein [3]: did not notably attenuate the expression of Hsp90 protein
inhibition at 0.08 µg/mL (human topoisomerase II; 0.08 μg/mL): 12%
inhibition at 0.312 µg/mL (human topoisomerase II; 0.312 μg/mL): 13%
inhibition at 1.25 µg/mL (human topoisomerase II; 1.25 μg/mL): 17%
inhibition at 5 µg/mL (human topoisomerase II; 5 μg/mL): 20%
inhibition at 20 µg/mL (human topoisomerase II; 20 μg/mL): 99%
localization of Hsp70 (Hsp70 in Molt 4 cells): predominantly accumulated in cytosol
